PubChem BioAssay (NCI)
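GI50 = concentration required for 50% inhibition of growth. At the TGI there is no net growth.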

Columns and labels:
Test in all cases: NCI anticancer screen, dose series, 384-well format
SK-MEL-5 melanoma = system: SK-MEL-5 melanoma
UACC-257 melanoma = system: UACC-257 melanoma
NCI-H23 lung = system: NCI-H23 lung
SNB-19 CNS = system: SNB-19 CNS
TK-10 renal = system: TK-10 renal
SF-268 CNS = system: SF-268 CNS
MDA-MB-468 breast = system: MDA-MB-468 breast
HT29 colon = system: HT29 colon
CAKI-1 renal = system: CAKI-1 renal
SF-539 CNS = system: SF-539 CNS
SK-OV-3 ovarian = system: SK-OV-3 ovarian
MALME-3M melanoma = system: MALME-3M melanoma
DU-145 prostate = system: DU-145 prostate
UACC-62 melanoma = system: UACC-62 melanoma
NCI-H322M lung = system: NCI-H322M lung
SW-620 colon = system: SW-620 colon
IGROV1 ovarian = system: IGROV1 ovarian
A498 renal = system: A498 renal
OVCAR-3 ovarian = system: OVCAR-3 ovarian
SK-MEL-28 melanoma = system: SK-MEL-28 melanoma
U251 glioblastoma = system: U251 glioblastoma
SN12C renal = system: SN12C renal
MDA-MB-435 melanoma = system: MDA-MB-435 melanoma
NCI/ADR-RES ovarian = system: NCI/ADR-RES ovarian
RPMI-8226 leukemia = system: RPMI-8226 leukemia
SF-295 CNS = system: SF-295 CNS
MDA-MB-231 breast = system: MDA-MB-231 breast
BT-549 breast = system: BT-549 breast
HCT-15 colon = system: HCT-15 colon
ACHN renal = system: ACHN renal
M14 melanoma = system: M14 melanoma
PC-3 prostate = system: PC-3 prostate
HCC-2998 colon = system: HCC-2998 colon
OVCAR-5 ovarian = system: OVCAR-5 ovarian
RXF 393 renal = system: RXF 393 renal
NCI-H522 lung = system: NCI-H522 lung
COLO 205 colon = system: COLO 205 colon
MCF7 breast = system: MCF7 breast
HS 578T breast = system: HS 578T breast
HOP-92 NSCLC = system: HOP-92 NSCLC
786-0 renal = system: 786-0 renal
HOP-62 NSCLC = system: HOP-62 NSCLC
K-562 leukemia = system: K-562 leukemia
OVCAR-4 ovarian = system: OVCAR-4 ovarian
MOLT-4 leukemia = system: MOLT-4 leukemia
T-47D breast = system: T-47D breast
A549 NSCLC = system: A549 NSCLC
UO-31 renal = system: UO-31 renal
KM12 colon = system: KM12 colon
NCI-H226 lung = system: NCI-H226 lung
LOX IMVI melanoma = system: LOX IMVI melanoma
EKVX NSCLC = system: EKVX NSCLC
SNB-75 CNS = system: SNB-75 CNS
OVCAR-8 ovarian = system: OVCAR-8 ovarian
HCT-116 colon = system: HCT-116 colon

## Cc1c(NC(=O)OC[C@@H]2COCCN2)cn2ncnc(Nc3ccc4c(cnn4Cc4cccc(F)c4)c3)c12
SK-MEL-5 melanoma
  GI50: 1510 nM
  TGI: 2900 nM
UACC-257 melanoma
  GI50: 2030 nM
  TGI: 3.98 µM
NCI-H23 lung
  GI50: 3.6 µM
  TGI: 12.4 µM
SNB-19 CNS
  GI50: 3.72 µM
  TGI: 13.8 µM
TK-10 renal
  GI50: 661 nM
  TGI: 3.48 µM
SF-268 CNS
  GI50: 943 nM
  TGI: 3.78 µM
MDA-MB-468 breast
  GI50: 22.2 nM
  TGI: 70.1 nM
HT29 colon
  GI50: 1810 nM
  TGI: 3.47 µM
CAKI-1 renal
  GI50: 1900 nM
  TGI: 14.3 µM
SF-539 CNS
  GI50: 1950 nM
  TGI: 3.86 µM
SK-OV-3 ovarian
  GI50: 1770 nM
  TGI: 5.72 µM
MALME-3M melanoma
  GI50: 2230 nM
  TGI: 4.77 µM
DU-145 prostate
  GI50: 2440 nM
  TGI: 13.6 µM
UACC-62 melanoma
  GI50: 1910 nM
  TGI: 3.56 µM
NCI-H322M lung
  GI50: 363 nM
  TGI: 11.1 µM
SW-620 colon
  GI50: 3.8 µM
  TGI: 12 µM
IGROV1 ovarian
  GI50: 93.5 nM
  TGI: 4.96 µM
A498 renal
  GI50: 1400 nM
  TGI: 3.24 µM
OVCAR-3 ovarian
  GI50: 2670 nM
  TGI: 9.15 µM
SK-MEL-28 melanoma
  GI50: 2150 nM
  TGI: 4.05 µM
U251 glioblastoma
  GI50: 1910 nM
  TGI: 3.54 µM
SN12C renal
  GI50: 1960 nM
  TGI: 14.4 µM
MDA-MB-435 melanoma
  GI50: 4.66 µM
  TGI: 13.3 µM
NCI/ADR-RES ovarian
  GI50: 12.6 µM
  TGI: 25.2 µM
RPMI-8226 leukemia
  GI50: 2290 nM
  TGI: 4.19 µM
SF-295 CNS
  GI50: 2280 nM
  TGI: 4.89 µM
MDA-MB-231 breast
  GI50: 1920 nM
  TGI: 4.65 µM
BT-549 breast
  GI50: 2030 nM
  TGI: 4.36 µM
HCT-15 colon
  GI50: 2190 nM
  TGI: 5.47 µM
ACHN renal
  GI50: 815 nM
  TGI: 12.7 µM
M14 melanoma
  GI50: 2080 nM
  TGI: 4.29 µM
PC-3 prostate
  GI50: 3000 nM
  TGI: 7.88 µM
HCC-2998 colon
  GI50: 1660 nM
  TGI: 3.61 µM
OVCAR-5 ovarian
  GI50: 3.37 µM
  TGI: 16.1 µM
RXF 393 renal
  GI50: 1670 nM
  TGI: 3.34 µM
NCI-H522 lung
  GI50: 255 nM
  TGI: 3.82 µM
COLO 205 colon
  GI50: 2960 nM
  TGI: 7.54 µM
MCF7 breast
  GI50: 3000 nM
  TGI: 10.4 µM
HS 578T breast
  GI50: 2330 nM
  TGI: 5.32 µM
HOP-92 NSCLC
  GI50: 2460 nM
  TGI: 9.57 µM
786-0 renal
  GI50: 1420 nM
  TGI: 2910 nM
HOP-62 NSCLC
  GI50: 2010 nM
  TGI: 9.3 µM
K-562 leukemia
  GI50: 1790 nM
  TGI: 3.32 µM
OVCAR-4 ovarian
  GI50: 3.75 µM
  TGI: 12.4 µM
MOLT-4 leukemia
  GI50: 1690 nM
  TGI: 3.35 µM
T-47D breast
  GI50: 46.7 nM
  TGI: 1060 nM
A549 NSCLC
  GI50: 2820 nM
  TGI: 13.6 µM
UO-31 renal
  GI50: 1470 nM
  TGI: 3.73 µM
KM12 colon
  GI50: 3.74 µM
  TGI: 13.5 µM
NCI-H226 lung
  GI50: 5.08 µM
  TGI: 18.1 µM
LOX IMVI melanoma
  GI50: 1700 nM
  TGI: 3.2 µM
EKVX NSCLC
  GI50: 1020 nM
  TGI: 5.16 µM
SNB-75 CNS
  GI50: 2960 nM
  TGI: 9 µM
OVCAR-8 ovarian
  GI50: 4.46 µM
  TGI: 16.2 µM
HCT-116 colon
  GI50: 2350 nM
  TGI: 4.88 µM
